What was measured:
[1] = system: S. lividans pCAO200SU1-FeS-B#9; assay: Sulfonylurea metabolism by washed cell suspension (Examples 6-9); format: in vitro ADME, Streptomyces lividans
S. lividans pCAO200 [2] = assay: as above; format: in vitro ADME, Streptomyces lividans; settings: substrate 10006
[3] = system: S. lividans pCAO200SU1#12; assay: as above; format: in vitro ADME, Streptomyces lividans; settings: substrate 10006
[4] = Incubation buffer without cells, time 0 (Examples 5-9, 11, 12); format: in vitro ADME; settings: no cells; substrate 10006; 0 h
Method: (§1) A 100 ml culture of S. griseolus ATCC 11796 in sporulation broth and a 50 ml culture of S. lividans transformed with pCAO400 in YEME broth were prepared and incubated for 24 hours as described. At that time, the S. griseolus culture was split into two 50 ml aliquots into two separate flasks and 25 ml of fresh sporulation broth was added to each and 9 mg of […] was added to one of these cultures to induce cytochrome P450SU1 expression. Fresh YEME broth (25 ml) was added to the S. lividans culture. After an additional 6 hours growth at 30° C., the cells in each culture were harvested as described above, washed twice with MOPS (50 mM, pH 7.2) and recentrifuged. The cell pellets were resuspended in four cell volumes of MOPS (50 mM, pH 7.2) containing 0.2% glucose and about 100 μg/ml of 10004. These cell suspensions were incubated at 30° C. with shaking and aliqouts were taken at 2 and 5.5 hours. The supernatant of each aliquot was analyzed by HPLC and the concentrations of the sulfonylurea compound 10004 and its metabolite 10005 were determined.
(§2) S. lividans transformed respectively with pCAO200SU1-FeS-B#9, pCAO200SU#112and pCAO200 were cultured for 36 hours in 400 ml of YEME broth at 30° C. S. griseolus ATCC 11796 was similarly cultured in 400 ml of sporulation broth. Six hours before harvesting the cells, 150 ml of fresh YEME broth was added to the S. lividans cells, and the S. griseolus cells were split into two 200 ml cultures with 100 ml of fresh sporulation broth added to each. 10001 (36 mg) was added to one of the two S. griseolus cultures to induce cytochrome P450SU1. The cells were prepared as described above in Example 5 and the concentrations of the sulfonylurea compound 10006 and its metabolites 10007, 10008 or 10009 were determined.
S. lividans transformed with pCAO200SU2-FeS-A#11 and S. lividans transformed with pCAO200 were cultured for 36 hours in 400 ml of YEME broth at 30° C. S. griseolus PH2001 (mutant without SU1) was cultured in 400 ml of sporulation broth at 30° C. Nine hours before harvesting the cells, the S. griseolus PH2001 culture was divided into two 200 ml cultures. Both received 100 ml of fresh sporulation broth and one received 36 mg of 10001 to induce cytochrome P450SU2. The cells were prepared as described above in Example 6 and the concentrations of the sulfonylurea compound 10001 and its metabolites 10002 and 10003 were determined.

[5] = system: S. griseolus ATCC 11796 uninduced; assay: Sulfonylurea metabolism by washed cell suspension (Examples 5-9); format: in vitro ADME, Streptomyces griseolus; settings: substrate 10006
Method: (§3) Herbicides and their metabolites are measured by HPLC as described by Romesser et al., BBRC 140: 650-659 (1986), herein incorporated by reference, except that 0.1% H3 PO4 is used in both solvents. Chromatographic identity and quantitation of the herbicides and their resulting metabolites is determined by comparing them chromatographically with authentic standard compounds. Identity of the resulting metabolites is also confirmed by UV spectroscopy.
as §1, §2

[6] = system: S. griseolus ATCC 11796 induced with 10001; assay: as above; format: in vitro ADME, Streptomyces griseolus; settings: substrate 10006
Method: as §3, §1, §2

[7] = system: S. lividans pCAO200SU1-FeS-B#9; assay: Percent conversion of herbicides by cultures (Example 16); format: in vitro ADME, Streptomyces lividans; settings: for Percent Conversion: 3.0 mg herbicide in 25 ml broth, 24 hours; for metabolism by bacteria containing constitutively expressed P450SU1: summary of Table 13
Method: (§4) Separate cultures (50 ml) inoculated with S. lividans C37, S. lividans transformed with pCAO200SU1-FeS-B#9, S. griseolus ATCC11796, S. griseolus PH2003 transformed with pIJ425, or S. ariseolus PH2003 transformed with pCS325 were cultured in sporulation broth for 18 hours at 30° C. with shaking. Each culture was then resuspended in 25 ml fresh sporulation broth and 3.0 mg herbicide added. In the case of cultures of S. griseolus ATCC11796, a second culture containing herbicide and 3.0 mg 10001 was also prepared. Each culture was reincubated for 24 hours, then an aliquot of the medium was withdrawn and analyzed by HPLC. The percent conversion of herbicide was determined.

S. lividans C37 [8] = assay: as above; format: in vitro ADME, Streptomyces lividans; settings: 3.0 mg herbicide in 25 ml broth; 24 hours
Method: as §4

[9] = system: S. griseolus ATCC 11796, 10001 added; assay: as above; format: in vitro ADME, Streptomyces griseolus; settings: 3.0 mg herbicide and 3.0 mg 10001 in 25 ml broth; 24 hours
Method: as §4

S. griseolus ATCC 11796 = assay: as above; format: in vitro ADME, Streptomyces griseolus; settings: 3.0 mg herbicide in 25 ml broth; 24 hours
Method: as §4

[10] = molecular target: T1, purified cytochrome p450SU1 (Streptomyces griseolus, UniProt P18326); assay: Rate of metabolism of 10015 to 10014 supported by FeS proteins (Example 27); format: biochemical; settings: 0.2 mM 10015, 15 min
T1 construct: Purified, native cytochromes P450SU1 and P450SU2; endogenous in cells; host or cells: sulfonylurea-induced Streptomyces griseolus cells
T1 sequence (P18326 whole entry, looked up): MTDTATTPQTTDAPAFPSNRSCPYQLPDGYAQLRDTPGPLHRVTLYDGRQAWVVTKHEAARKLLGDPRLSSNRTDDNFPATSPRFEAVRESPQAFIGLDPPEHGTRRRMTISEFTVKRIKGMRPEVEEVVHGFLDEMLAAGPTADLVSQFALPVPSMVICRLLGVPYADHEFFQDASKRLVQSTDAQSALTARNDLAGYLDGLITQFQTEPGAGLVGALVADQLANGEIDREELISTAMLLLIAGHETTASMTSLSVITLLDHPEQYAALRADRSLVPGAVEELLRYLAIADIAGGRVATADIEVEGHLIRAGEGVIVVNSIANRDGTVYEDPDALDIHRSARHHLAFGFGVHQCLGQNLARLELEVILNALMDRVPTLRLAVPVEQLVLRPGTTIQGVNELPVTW
Method: The purpose of this example was to define the combination of cytochrome p450SU1 and other proteins which results in optimal metabolism of sulfonylureas, based on conclusions from in vitro experiments. In these experiments, the rate of metabolism of 10015 to 10014, mediated by purified cytochrome p450SU1, was tested to find which FeS protein functions as the best direct electron donor.
The reaction was initiated by-the addition of NADPH to a final concentration of 0.03 mM. After 15 min the reaction was terminated by the addition of 0.25 ml H2 O:acetonitrile:H3 PO4^- (80:19:1). After filtering this mixture through a 0.2 μm filter, the amount of metabolite (10014) formed was analyzed by HPLC.

[11] = system: S. griseolus PH2003 pCS325; assay: Percent conversion of herbicides by cultures (Example 16); format: in vitro ADME, Streptomyces griseolus; settings: for Percent Conversion: 3.0 mg herbicide in 25 ml broth, 24 hours
Method: as §4

[12] = system: S. griseolus PH2003 pIJ425; assay: as above; format: in vitro ADME, Streptomyces griseolus; settings: 3.0 mg herbicide in 25 ml broth; 24 hours
Method: as §4

S. griseolus ATCC11796 = assay: Percent conversion of non-sulfonylurea herbicides (Example 29); format: in vitro ADME, Streptomyces griseolus; settings: 3.0 mg herbicide in 25 ml broth; 18 hours
Method: (§5) This experiment was performed as in Example 17 with the following changes. Separate cultures (50 ml) inoculated with S. lividans C37, S. lividans transformed with pCAO200SU1-FeS-B#9, or S. griseolus ATCC11796 were cultured in sporulation broth for 18 hours at 30° C. with shaking. Each culture was then resuspended in 25 ml fresh sporulation broth and 3.0 mg herbicide added. Each culture was reincubated for 18 hours, then an aliquot of the medium was withdrawn and analyzed by HPLC. The percent conversion of herbicide was determined.

[13] = system: S. lividans pCAO200SU1-FeS-B#9; assay: as above; format: in vitro ADME, Streptomyces lividans
Method: as §5

S. lividans C37 [14] = assay: as above; format: in vitro ADME, Streptomyces lividans; settings: 3.0 mg herbicide in 25 ml broth; 18 hours
Method: as §5

S. lividans pCAO200 [15] = assay: Sulfonylurea metabolism by washed cell suspension (Examples 6-9); format: in vitro ADME, Streptomyces lividans; settings: substrate 10004
[16] = system: S. lividans transformed with pCAO400; assay: Sulfonylurea metabolism by washed cell suspension (Example 5); format: in vitro ADME, Streptomyces lividans; settings: substrate 10004 about 100 μg/ml
Method: as §3, §1

[17] = system: S. lividans pCAO200SU1#12; assay: Sulfonylurea metabolism by washed cell suspension (Examples 6-9); format: in vitro ADME, Streptomyces lividans; settings: substrate 10004

Compound: COC(=O)c1ccccc1S(=O)(=O)NC(=O)Nc1nc(C)nc(OC)n1 [compound 10006, N-[(4-methoxy-6-methyl-1,3,5-triazinyl)aminocarbonyl]-2-methoxycarbonylbenzenesulfonamide]
- concentration in supernatant ([1]; substrate 10006, 2 h): 326 µM
- concentration in supernatant ([1]; substrate 10006, 4 h): 267 µM
- concentration in supernatant ([1]; substrate 10006, 6 h): 232 µM
- concentration in supernatant (S. lividans pCAO200 [2]; 2 h): 381 µM
- concentration in supernatant (S. lividans pCAO200 [2]; 4 h): 377 µM
- concentration in supernatant (S. lividans pCAO200 [2]; 6 h): 375 µM
- concentration in supernatant ([3]; 2 h): 376 µM
- concentration in supernatant ([3]; 4 h): 384 µM
- concentration in supernatant ([3]; 6 h): 386 µM
- concentration in supernatant [4]: 362 µM
- concentration in supernatant ([5]; 2 h): 404 µM
- concentration in supernatant ([5]; 4 h): 394 µM
- concentration in supernatant ([5]; 6 h): 405 µM
- concentration in supernatant ([6]; 2 h): 369 µM
- concentration in supernatant ([6]; 4 h): 357 µM
- concentration in supernatant ([6]; 6 h): 355 µM

Compound: N#Cc1cc(Br)c(O)c(Br)c1 [compound 10023, 3,5-dibromo-4-hydroxybenzonitrile]
- Percent Conversion [7]: 0%
- Percent Conversion (S. lividans C37 [8]): 0%
- Percent Conversion [9]: 0%
- Percent Conversion (S. griseolus ATCC 11796): 0%

Compound: spinach Fd: spinach ferredoxin (an FeS protein)
- Rate of 10015 metabolism to 10014 [10]: 0.4 (nmol 10014)·(nmol p450)-1·(mi
- Rate of 10015 metabolism to 10014 ([10]; 4 mM FeS addition, FNR 0.2 mM): 0.2 (nmol 10014)·(nmol p450)-1·(mi
- Rate of 10015 metabolism to 10014 ([10]; 4 mM FeS addition, FNR 2.0 mM): 0.2 (nmol 10014)·(nmol p450)-1·(mi

Compound: Cc1ccc(NC(=O)N(C)C)cc1Cl [compound 10019, 3-(3-chloro-p-tolyl)-1,1-dimethylurea]
- Percent Conversion [7]: 35%
- metabolism by bacteria containing constitutively expressed P450SU1 [7]: metabolized
- Percent Conversion (S. lividans C37 [8]): 0%
- Percent Conversion [9]: 80%
- Percent Conversion [11]: 9%
- Percent Conversion (S. griseolus ATCC 11796): 0%
- Percent Conversion [12]: 0%

Compound: CC(C)C1(C)N=C(c2nc3ccccc3cc2C(=O)O)NC1=O (stereo not shown) [compound 10035, 2-[4,5-dihydro-4-methyl-4-(1-methylethyl)-5-oxo-1H-imidazol-2-yl]-3-quinolinecarboxylic acid]
- Percent Conversion (S. griseolus ATCC11796): 21%
- Percent Conversion ([13]; 3.0 mg herbicide in 25 ml broth, 18 hours): 96%
- metabolism by bacteria containing constitutively expressed P450SU1 ([13]; summary of Table 29): metabolized
- Percent Conversion (S. lividans C37 [14]): 22%

Compound: CN(C)c1nc(=O)n(C2CCCCC2)c(=O)n1C [compound 10017, 3-cyclohexyl-1-methyl-6-dimethylamino-S-triazine-2,4(1H,3H)dione]
- Percent Conversion [7]: 47%
- metabolism by bacteria containing constitutively expressed P450SU1 [7]: metabolized
- Percent Conversion (S. lividans C37 [8]): 19%
- Percent Conversion [9]: 35%
- Percent Conversion [11]: 98%
- metabolism by bacteria containing constitutively expressed P450SU2 ([11]; summary of Table 13): metabolized
- Percent Conversion (S. griseolus ATCC 11796): 1%
- Percent Conversion [12]: 6%

Compound: COc1cc(OC)nc(NC(=O)NS(=O)(=O)c2cccc3c2S(=O)(=O)N(CCC(C)O)C3)n1 (stereo not shown) [compound 10005, 2-(3-hydroxybutyl)-2,3-dihydro-N-[(4,6-dimethoxypyrimidin-2-yl)aminocarbonyl]1,2-benzisothiazole-7-sulfonamide-1,1-dioxide]
- concentration in supernatant (S. lividans pCAO200 [15]; 2 h): 22 µM
- concentration in supernatant (S. lividans pCAO200 [15]; 4 h): 26 µM
- concentration in supernatant (S. lividans pCAO200 [15]; 6 h): 30 µM
- concentration in supernatant ([1]; substrate 10004, 2 h): 35 µM
- concentration in supernatant ([1]; substrate 10004, 4 h): 100 µM
- concentration in supernatant ([1]; substrate 10004, 6 h): 100 µM
- concentration in supernatant ([16]; 2 h): 67 µM
- concentration in supernatant ([16]; 5.5 h): 125 µM
- concentration in supernatant ([17]; 2 h): 43 µM
- concentration in supernatant ([17]; 4 h): 84 µM
- concentration in supernatant ([17]; 6 h): 109 µM

Compound: CCCCN1Cc2cccc(S(=O)(=O)NC(=O)Nc3nc(OC)cc(OC)n3)c2S1(=O)=O [compound 10004]
- concentration in supernatant (S. lividans pCAO200 [15]; 2 h): 97 µM
- concentration in supernatant (S. lividans pCAO200 [15]; 4 h): 92 µM
- concentration in supernatant (S. lividans pCAO200 [15]; 6 h): 85 µM
- concentration in supernatant ([1]; substrate 10004, 2 h): 2 µM
- concentration in supernatant ([1]; substrate 10004, 4 h): 1 µM
- concentration in supernatant ([1]; substrate 10004, 6 h): 2 µM
- concentration in supernatant ([16]; 2 h): 72 µM
- concentration in supernatant ([16]; 5.5 h): 0 µM
- concentration in supernatant ([17]; 2 h): 81 µM
- concentration in supernatant ([17]; 4 h): 29 µM
- concentration in supernatant ([17]; 6 h): 0 µM
